Laboratory results from US20100317671A1, “XANTHINE-BASED CYCLIC GMP-ENHANCING RHO-KINASE INHIBITOR INHIBITS PHYSIOLOGICAL ACTIVITIES OF LUNG EPITHELIAL CELL LINE” (KAOHSIUNG MEDICAL UNIVERSITY, priority 2008, published 2010).

Assays:
Format in all cases: in vivo
Smad 3 = experiment: Smad3 expression by western blotting, bleomycin mice; conditions: lung fibrotic stage
Procedure: (§1) At day 28, it is observed that expression of eNOS is decreased, the expressions of TGF-β, Smad 3 and HMGB1 are increased and there is significant collagen accumulation in the tissue sections.
(§2) The TGF-β (FIG. 12), CTGF (FIG. 13) and Smad3/p-Smad3 (FIG. 14) protein expressions in the lung tissue are analyzed by western blotting.
(§3) (1) The mice lung is immersed in the tissue lysis buffer and homogenized by an ultrasound sonicator on ice.
(§4) (2) The lysate is centrifuged at 13,000 g under 4° C. for 30 mins. The supernatant is collected and the protein concentration measurement adopts the“Bio-Rad DC protein assay”. After diluting the protein as specific concentrations, the sample buffer being one fourth of the sample volume is added thereinto for heating at 100° C. for 5 mins, and the sample is loaded into each wells of SDS-PAGE gel in turn. The running buffer is added into the electrophoresis tank for electrophoresis at 100 V, the voltage is adjusted as 200 V when the protein runs to the lower gel, and the electrophoresis is stopped when the SDS-PAGE dye enters the SDS-PAGE.
(§5) (3) The PVDF membrane is rinsed ith transfer buffer for use, and the protein on the SDS-PAGE is transferred to the PVDF membrane. The SDS-PAGE layer covering on the PVDF membrane is placed in a protein transfer tank immersed with the transfer buffer with the current set at 100V. […]

[1] = test system: inflammatory cells in the lung lavage; experiment: Inflammatory cells in lung lavage, bleomycin-induced IPF mice; design: WBC total (white blood cell total count) / NE (neutrophil) / LY (lymphocyte) / MO (monocyte) / EO (eosinophil) / BA (basophil): unit not given here; conditions: for Amount of WBC in lung lavage: lung inflammatory stage; for BA (basophil) / EO (eosinophil) / LY (lymphocyte) / MO (monocyte) / NE (neutrophil) / WBC total (white blood cell total count): lung lavage
Procedure: The amounts of the total cell, the neutrophill, the lymphocyte, the monocyte, the eosinophill and the basophill are analyzed by an automatic animal blood cell analyzer for evaluating the extent of the inflammation. […] The mice are euthanatized by administering the Urathane in a dose of 37.5 mg/10 g. The larynx is opened, the trachea is picked out, cut and held by a forcepts and a 0.58 mm PE tube is slowly inserted the trachea for infusing 0.5 ml PBS. The PBS is incubated for 15 seconds and then collected after gently massaging the lung tissue. 1 c.c. lung lavage is obtained after the above steps are repeated twice. The lung lavage is collected and transferred into a centrifuged tube for centrifuging at 1,200 rpm at 4° C. for 6 mins. The supernatant is collected and stored at −80° C. for zymography, and the pellet is suspended in PBS for calculating the WBC count. The pellet of the alveolar lavage is suspended in PBS and transferred into an eppendorff. The amount and kind of the inflammatory cell such as WBC total, the lymphocyte, the monocyte, the neutrophil, the eosinophil and the basophil are analyzed by an automatic animal blood cell analyzer.

HMGB1 = HMGB1 expression, bleomycin mice; conditions: lung inflammatory stage
Procedure: as §1, §3, §4
(3) The PVDF membrane is rinsed ith transfer buffer for use, and the protein on the SDS-PAGE is transferred to the PVDF membrane. The SDS-PAGE layer covering on the PVDF membrane is placed in a protein transfer tank immersed with the transfer buffer with the current set at 100V. After 80 mins, the transfer is completed and then the PVDF membrane is taken out. […]

[2] = Body weight change, bleomycin-induced IPF mice
Procedure: The six-week old mice are used in this experiment and divided into ten groups as follows. […] The six-week old male C57B1/6 mice are purchased from the National Laboratory Animal Center. […] After being […] pentobarbital in the dose of 0.52 mg/10 g, the mice is kept upright and positioned an otoscope into the larynx for looking into the trachea clearly. The bleomycin is loaded by a loading tip for intratracheal administration.

eNOS = eNOS expression by western blotting, bleomycin mice; conditions: lung fibrotic stage
Procedure: as §1
The eNOS (FIG. 15), p-eNOS (FIG. 16) and iNOS (FIG. 17) protein expressions in the lung tissue are analyzed by western blotting. […] The KMUPs administration effectively increases the eNOS expression.
as §3, §4
(3) The PVDF membrane is rinsed ith transfer buffer for use, and the protein on the SDS-PAGE is transferred to the PVDF membrane. […]

TGF-β = TGF-β expression by western blotting, bleomycin mice; conditions: lung fibrotic stage
Procedure: as §1, §2, §3, §4, §5

collagen = experiment: Collagen amount, bleomycin-induced IPF mice; conditions: for Fibrosis formation in lung tissue (collagen): day 28, p<0.01; for The amount of collagen: day 28 after BLM
Procedure: The amount of the collagen in the lung lavage is measured to reflect the fibrosis formation. […] (2) After the lung lavage is obtained, the chest of mice is opened and the lung lobes are cut one by one. […] The 1.5 ml eppendorffs are taken to arrange the calibration curve as follows. […] The eppendorff is then centrifuged at 12,000 rpm for 10 mins. The supernatant in the eppendorff is poured out slowly, 1 ml basic compound is added for dissolving the precipitation. After being violently shaken for 5 mins, the reaction is incubated for 3 hrs to stabilize the color. […] The amount of collagen is estimated through the 540 nm absorption measured by the ELISA reader.

[3] = day 7, dose 2.5 mg/kg (Combination: 2.5 mg/kg each drug)
[4] = day 28, dose 2.5 mg/kg (Combination: 2.5 mg/kg each drug)
[5] = Day 7, dose 2.5 mg/kg (Combination: 2.5 mg/kg each drug)
[6] = Day 14, dose 2.5 mg/kg (Combination: 2.5 mg/kg each drug)
[7] = Day 28, dose 2.5 mg/kg (Combination: 2.5 mg/kg each drug)
[8] = Day −3, dose 2.5 mg/kg (Combination: 2.5 mg/kg each drug)
[9] = dose 2.5 mg/kg (Combination: 2.5 mg/kg each drug)

## Cn1c(=O)c2c(ncn2CCN2CCN(c3ccccc3Cl)CC2)n(C)c1=O [KMUP-1, 7-[2-[4-(2-chlorobenzene)piperazinyl]ethyl]-1,3-dimethylxanthine]
Smad 3
  Expression of Smad 3: inhibit
[1]
  Amount of WBC in lung lavage: efficiently decrease
[1]; day 7, dose 1 mg/kg
  BA (basophil): 0.2 ± 0.01
  EO (eosinophil): 0.44 ± 0.02
  LY (lymphocyte): 1.83 ± 0.11
  MO (monocyte): 0.12 ± 0.02
  NE (neutrophil): 0.92 ± 0.13
  WBC total (white blood cell total count): 3.51 ± 0.01
[1]; [3]
  BA (basophil): 0.11 ± 0.02
  EO (eosinophil): 0.17 ± 0.11
  LY (lymphocyte): 1.81 ± 0.09
  MO (monocyte): 0.07 ± 0.01
  NE (neutrophil): 0.91 ± 0.36
  WBC total (white blood cell total count): 3.2 ± 0.49
[1]; day 7, dose 5 mg/kg
  BA (basophil): 0.1 ± 0.02
  EO (eosinophil): 0.16 ± 0.01
  LY (lymphocyte): 1.76 ± 0.01
  MO (monocyte): 0.07 ± 0.01
  NE (neutrophil): 0.33 ± 0.14
  WBC total (white blood cell total count): 2.43 ± 0.01
[1]; day 28, dose 1 mg/kg
  BA (basophil): 0.21 ± 0.06
  EO (eosinophil): 0.42 ± 0.17
  LY (lymphocyte): 1.89 ± 0.76
  MO (monocyte): 0.2 ± 0.25
  NE (neutrophil): 0.61 ± 0.11
  WBC total (white blood cell total count): 3.41 ± 0.54
[1]; [4]
  BA (basophil): 0.11 ± 0.7
  EO (eosinophil): 0.17 ± 0.12
  LY (lymphocyte): 1.24 ± 0.43
  MO (monocyte): 0.07 ± 0.02
  NE (neutrophil): 0.36 ± 0.16
  WBC total (white blood cell total count): 1.95 ± 0.92
[1]; day 28, dose 5 mg/kg
  BA (basophil): 0.1 ± 0.02
  EO (eosinophil): 0.16 ± 0.01
  LY (lymphocyte): 1.1 ± 0.01
  MO (monocyte): 0.07 ± 0.01
  NE (neutrophil): 0.33 ± 0.14
  WBC total (white blood cell total count): 1.8 ± 0.01
HMGB1
  Expression of HMGB1: efficiently decrease
[2]; Day 7, dose 1 mg/kg
  Body weight: 19.80 ± 3.13 g
[2]; [5]
  Body weight: 17.84 ± 1.72 g
[2]; Day 7, dose 5 mg/kg
  Body weight: 18.33 ± 1.3 g
[2]; Day 14, dose 1 mg/kg
  Body weight: 20.48 ± 5.68 g
[2]; [6]
  Body weight: 19.11 ± 3.4 g
[2]; Day 14, dose 5 mg/kg
  Body weight: 19.83 ± 2.3 g
[2]; Day 28, dose 1 mg/kg
  Body weight: 21.90 ± 5.27 g
[2]; [7]
  Body weight: 20.43 ± 2.8 g
[2]; Day 28, dose 5 mg/kg
  Body weight: 21.13 ± 2.5 g
[2]; Day −3, dose 1 mg/kg
  Body weight: 24.12 ± 1.96 g
[2]; [8]
  Body weight: 23.06 ± 1.36 g
[2]; Day −3, dose 5 mg/kg
  Body weight: 23.13 ± 1.42 g
eNOS
  Expression of eNOS: increase
TGF-β
  Expression of TGF-β: inhibit
collagen
  Fibrosis formation in lung tissue (collagen): reduce
collagen; dose 1 mg/kg
  The amount of collagen: 165.16 ± 0.11 μg/lung
collagen; [9]
  The amount of collagen: 132.25 ± 5.95 μg/lung
collagen; dose 5 mg/kg
  The amount of collagen: 108.32 ± 6.05 μg/lung

## CCC(C)(C)C(=O)O[C@H]1C[C@@H](C)C=C2C=C[C@H](C)[C@H](CC[C@@H](O)C[C@@H](O)CC(=O)O)[C@H]21.Cn1c(=O)c2c(ncn2CCN2CCN(c3ccccc3Cl)CC2)n(C)c1=O [KMUP-5]
Smad 3
  Expression of Smad 3: inhibit
[1]
  Amount of WBC in lung lavage: efficiently decrease
[1]; [3]
  BA (basophil): 0.02 ± 0.01
  EO (eosinophil): 0.06 ± 0.04
  LY (lymphocyte): 0.45 ± 0.17
  MO (monocyte): 0.03 ± 0.02
  NE (neutrophil): 0.18 ± 0.08
  WBC total (white blood cell total count): 0.74 ± 0.21
[1]; [4]
  BA (basophil): 0.01 ± 0.16
  EO (eosinophil): 0.05 ± 0.3
  LY (lymphocyte): 1.32 ± 1.59
  MO (monocyte): 0.06 ± 0.11
  NE (neutrophil): 0.14 ± 0.39
  WBC total (white blood cell total count): 1.58 ± 2.24
HMGB1
  Expression of HMGB1: efficiently decrease
[2]; [5]
  Body weight: 22.25 ± 2.36 g
[2]; [6]
  Body weight: 23.15 ± 2.51 g
[2]; [7]
  Body weight: 23.03 ± 2.74 g
[2]; [8]
  Body weight: 23.87 ± 2.04 g
[2]; bleomycin mice
  Marasmus (body weight loss): less significant
eNOS
  Expression of eNOS: increase
TGF-β
  Expression of TGF-β: inhibit
collagen
  Fibrosis formation in lung tissue (collagen): reduce
collagen; [9]
  The amount of collagen: 79.40 ± 0.02 μg/lung
